Laboratory results as given in patent publication US8344028B2, “Gamma-amino-butyric acid derivatives as GABAB receptor ligands” (XenoPort, Inc., priority 2009, dated 2013).

Legend:
[1] = Bioavailability following oral administration to rats; conditions: rat, in vivo
Procedure: Rats were obtained commercially and were pre-cannulated in the jugular vein. Animals were conscious at the time of the experiment. All animals were fasted overnight and until 4 hours post-dosing of a compound.
Rat blood samples (0.3 mL/sample) were collected from all animals prior to dosing and at different time-points up to 24 h post-dose into tubes containing EDTA. Two aliquots (100 μL each) were quenched with 300 μL methanol and stored at −20° C. prior to analysis.
To prepare analysis standards, 90 μL of rat blood was quenched with 300 μL methanol followed by 10 μL of spiking standard and/or 20 μL of internal standard. The sample tubes were vortexed for at least 2 min and then centrifuged at 3400 rpm for 20 min. The supernatant was then transferred to an injection vial or plate for analysis by LC-MS-MS.
To prepare samples for analysis, 20 μL of internal standard was added to each quenched sample tube. The sample tubes were vortexed for at least 2 min and then centrifuged at 3400 rpm for 20 min. The supernatant was then transferred to an injection vial or plate for analysis by LC-MS-MS.
LC/MS/MS analysis was performed using an API 2000 or API 4000 mass spectrometer equipped with a Shimadzu and or Agilent HPLC system are used for determination concentration of compounds in rat blood. A Varian Polaris C18, 3μ 50×4.6 mm column was used. 0.1% Formic acid in water and acetonitrile were applied as the mobile phase. Runs were 4.0 min. […] L-4-Chlorophenylalanine was used as an internal standard at m/z 200.00/154.00.
Non-compartmental analysis was performed using WinNonlin software (v.3.1 Professional Version, Pharsight Corporation, Mountain View, Calif.) on individual animal profiles. […]
The oral bioavailability (F %) of a compound was determined by comparing the area under the compound concentration vs time curve (AUC) following oral administration of a prodrug of a GABAB ligand with the AUC of the compound concentration vs time curve following intravenous administration of the GABAB ligand on a dose normalized basis.

GABAB receptor = GABAB receptor (Homo sapiens, UniProt Q9UBS5); test: GABAB receptor agonist or partial agonist activity by binding, electrophysiology, cAMP and/or Ca2+ assay methods (Examples 83-86); type: cell-based
How it was run: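 Binding: rat cortex membranes in 50 mM Tris pH 7.4 with 100 μM isoguvacine were preincubated 10 min at RT with compound, then radiolabeled CGP54626 (1-10 nM) was added; filtered and scintillation-counted. cAMP: GABAB R1a2 HEK cells, 1 h RT with 100 μM forskolin, chemiluminescence.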

Sequence of GABAB receptor (Q9UBS5 20-961): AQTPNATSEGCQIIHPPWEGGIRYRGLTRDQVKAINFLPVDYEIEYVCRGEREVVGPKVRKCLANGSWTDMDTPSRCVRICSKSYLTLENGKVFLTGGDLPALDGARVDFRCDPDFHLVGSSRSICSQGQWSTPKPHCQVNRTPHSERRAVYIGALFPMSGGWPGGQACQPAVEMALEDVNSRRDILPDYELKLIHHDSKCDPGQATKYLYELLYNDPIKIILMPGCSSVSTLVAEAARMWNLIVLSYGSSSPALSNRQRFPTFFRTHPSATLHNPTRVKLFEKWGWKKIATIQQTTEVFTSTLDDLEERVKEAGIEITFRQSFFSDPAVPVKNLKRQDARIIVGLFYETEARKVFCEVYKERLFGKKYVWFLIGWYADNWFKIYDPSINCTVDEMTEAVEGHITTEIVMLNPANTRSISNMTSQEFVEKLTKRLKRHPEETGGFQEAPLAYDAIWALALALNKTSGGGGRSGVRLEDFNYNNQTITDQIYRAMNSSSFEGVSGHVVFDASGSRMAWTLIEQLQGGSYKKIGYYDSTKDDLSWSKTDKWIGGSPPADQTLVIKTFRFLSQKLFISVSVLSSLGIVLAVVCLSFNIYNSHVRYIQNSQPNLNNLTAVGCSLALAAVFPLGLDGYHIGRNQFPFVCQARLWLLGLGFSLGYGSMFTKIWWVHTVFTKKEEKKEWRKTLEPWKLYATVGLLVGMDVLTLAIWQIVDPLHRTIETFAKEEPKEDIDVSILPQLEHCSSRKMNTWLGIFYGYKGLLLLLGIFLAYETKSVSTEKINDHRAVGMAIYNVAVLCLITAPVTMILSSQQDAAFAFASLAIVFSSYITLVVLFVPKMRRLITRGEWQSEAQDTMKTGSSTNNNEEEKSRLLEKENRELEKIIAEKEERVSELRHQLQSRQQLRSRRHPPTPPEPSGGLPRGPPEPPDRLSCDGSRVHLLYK
Sequence of GABAB receptor (O75899 42-941 partner): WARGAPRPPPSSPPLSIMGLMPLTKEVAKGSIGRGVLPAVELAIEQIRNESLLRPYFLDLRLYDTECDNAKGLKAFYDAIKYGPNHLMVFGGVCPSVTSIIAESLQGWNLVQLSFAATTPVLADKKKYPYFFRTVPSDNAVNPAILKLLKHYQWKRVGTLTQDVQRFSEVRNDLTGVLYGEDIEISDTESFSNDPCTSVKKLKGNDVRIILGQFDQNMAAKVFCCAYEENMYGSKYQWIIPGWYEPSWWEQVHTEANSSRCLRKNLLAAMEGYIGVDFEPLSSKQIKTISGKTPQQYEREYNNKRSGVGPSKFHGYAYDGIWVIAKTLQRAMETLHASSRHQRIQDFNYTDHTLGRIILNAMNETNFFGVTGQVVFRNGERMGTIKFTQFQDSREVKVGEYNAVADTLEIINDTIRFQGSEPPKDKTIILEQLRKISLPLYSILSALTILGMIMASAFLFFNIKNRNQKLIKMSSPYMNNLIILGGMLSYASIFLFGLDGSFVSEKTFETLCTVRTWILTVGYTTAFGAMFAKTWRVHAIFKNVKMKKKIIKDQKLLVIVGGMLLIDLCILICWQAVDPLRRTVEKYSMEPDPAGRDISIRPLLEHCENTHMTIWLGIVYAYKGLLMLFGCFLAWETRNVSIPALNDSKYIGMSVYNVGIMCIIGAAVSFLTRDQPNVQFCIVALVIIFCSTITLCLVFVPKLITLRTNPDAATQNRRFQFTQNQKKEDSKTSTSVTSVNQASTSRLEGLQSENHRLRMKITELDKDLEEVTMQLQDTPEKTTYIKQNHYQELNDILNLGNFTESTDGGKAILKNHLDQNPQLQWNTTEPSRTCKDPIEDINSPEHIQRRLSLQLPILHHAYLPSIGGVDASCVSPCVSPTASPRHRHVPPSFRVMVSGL

Structure (SMILES): Cl.NC[C@H](CC(=O)O)c1ccc(Cl)c(OCc2ccncc2)c1 [Example 68, (3R)-4-Amino-3-[4-chloro-3-(4-pyridylmethoxy)phenyl]butanoic acid hydrochloride]
- oral bioavailability (F %) [1]: greater than 10%
- GABAB receptor agonist or partial agonist activity (GABAB receptor): agonist or partial agonist activity
